Among the test systems are HS 578T breast; OVCAR-8 ovarian; KM12 colon; NCI-H23 lung; SR leukemia; SNB-19 CNS; HT29 colon; UACC-257 melanoma; NCI-H226 lung; A549 NSCLC.
Assay in all cases: NCI anticancer screen, dose series, 48 h

“And” between values parts separate entries of the source, which are not always exact repeats. Equal values may be shown once.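 Where inhibition never reached the appropriate level, the endpoint shown equals the highest concentration tested. Otherwise, values were interpolated linearly from a five-concentration, 48-hour dose response in 96-well plates. Here, GI50 denotes the concentration required for 50% inhibition of growth. The concentration for full growth arrest is given as TGI.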 Where a SMILES comes first, the peptide text is derived from it. [ ]: non-standard residue; d: D form. The star is where a group is joined. ξ: configuration not given here. X3 = COc1ccc(C(N*)c2ccc(OC)cc2)cc1; NMeF = CN[C@@H](Cc1ccccc1)C(=O)O; NMeD = CN[C@@H](CC(=O)O)C(=O)O; NMeV = CN[C@H](C(=O)O)C(C)C; ξNMeV = CNC(C(=O)O)C(C)C; Boc = CC(C)(C)OC(=O)*; ξNMeA = CNC(C)C(=O)O; ξV = CC(C)C(N)C(=O)O Where only a bound is given, the exact number is not on record here.

For the compound `CCOC(=O)C1=C(C)N(c2ccc(F)cc2F)[C@]2(C#N)C(O)=C(Cl)C(Cl)=C(O)[C@]12C#N`, the GI50 in the test on HS 578T breast is above 100 µM; in the test on OVCAR-8 ovarian, above 100 µM; with KM12 colon, above 100 µM; in the test on NCI-H23 lung, above 100 µM; in the test on SR leukemia, 34.5 µM; in the test with SNB-19 CNS, above 100 µM. In addition, the GI50 in the test on HT29 colon, with UACC-257 melanoma, with NCI-H226 lung and in the test on A549 NSCLC was above 100 µM each time. The TGI in the test with HS 578T breast was above 100 µM; in the test with OVCAR-8 ovarian, above 100 µM; with KM12 colon it was above 100 µM; with NCI-H23 lung it was above 100 µM; in the test with SR leukemia, 95.9 µM; with SNB-19 CNS, above 100 µM. Moreover, the TGI with HT29 colon, with UACC-257 melanoma, with NCI-H226 lung and in the test with A549 NSCLC was above 100 µM throughout.
`Nc1ccc(C2=NNC(=O)Cc3cc4c(cc32)OCCO4)cc1Cl`: the GI50 in the test on HS 578T breast is 4.33 µM; in the test on OVCAR-8 ovarian, 8.03 µM; with KM12 colon, 1.74 µM; in the test with NCI-H23 lung it was 5.28 µM; in the test with SR leukemia it was 1.37 µM; in the test with SNB-19 CNS, 8.19 µM. Moreover, the GI50 in the test on HT29 colon was 2.11 µM; in the test with UACC-257 melanoma it was 13.3 µM; in the test with NCI-H226 lung, 8.12 µM; with A549 NSCLC, 2.95 µM. Moreover, the TGI is 25 µM in the test with HS 578T breast; above 50 µM with OVCAR-8 ovarian; above 50 µM in the test with KM12 colon; above 50 µM with NCI-H23 lung; above 50 µM in the test on SR leukemia; above 50 µM in the test on SNB-19 CNS. In addition, the TGI with HT29 colon, in the test with UACC-257 melanoma, in the test with NCI-H226 lung and in the test with A549 NSCLC was above 50 µM each time.
Consider `CCn1c(-c2nonc2N)nc2c(C#CC(C)(C)O)nc(OC[C@@H](N)c3ccccc3)cc21`, for which the GI50 in the test on HS 578T breast is 4.56 µM; in the test on OVCAR-8 ovarian it was 4.45 µM; in the test with KM12 colon it was 3.05 µM; in the test with NCI-H23 lung it was 5.13 µM; in the test on SR leukemia, 5.67 µM; in the test with SNB-19 CNS, 6 µM. The GI50 in the test with HT29 colon is 4.9 µM; with UACC-257 melanoma, 5.67 µM; in the test on NCI-H226 lung, 11.9 µM; in the test on A549 NSCLC it was 4.36 µM. Also, the TGI is 10.7 µM in the test on HS 578T breast; 8.83 µM in the test with OVCAR-8 ovarian; 6.75 µM in the test with KM12 colon; 10.8 µM with NCI-H23 lung; 16.8 µM in the test on SR leukemia; 11.6 µM in the test on SNB-19 CNS. The TGI in the test with HT29 colon is 9.53 µM; with UACC-257 melanoma it was 9.83 µM; in the test on NCI-H226 lung it was 16.2 µM; in the test on A549 NSCLC it was 9.18 µM.
`CC(=O)CC(OC(C)=O)C1=CCC2C(CC1C)OC(=O)C2C` (configuration not stated): the TGI with HS 578T breast, in the test with OVCAR-8 ovarian, in the test with KM12 colon, in the test with NCI-H23 lung, in the test with SR leukemia and with SNB-19 CNS was above 100 µM in each case. The TGI in the test on HT29 colon, in the test on UACC-257 melanoma, in the test on NCI-H226 lung and in the test on A549 NSCLC was above 100 µM in each case.
For `O=C(O)c1nc2nc(Cl)c(Cl)nc2[nH]1`, the TGI with HS 578T breast, in the test with OVCAR-8 ovarian, in the test with KM12 colon, with NCI-H23 lung, in the test on SR leukemia and in the test on SNB-19 CNS was above 100 µM throughout. The TGI with HT29 colon, with UACC-257 melanoma, in the test with NCI-H226 lung and in the test with A549 NSCLC was above 100 µM each time.
In the case of `N#CC(C#N)=C/C=C(\Sc1nc2ccccc2s1)c1ccc(Cl)cc1`, the GI50 in the test on HS 578T breast is 6.68 µM; in the test with OVCAR-8 ovarian it was 7.53 µM; in the test with KM12 colon, 8.9 µM; in the test on NCI-H23 lung, 3.56 µM; in the test with SR leukemia it was 0.844 µM; with SNB-19 CNS, 8.12 µM. The GI50 was 3.27 µM in the test on HT29 colon, 12.1 µM in the test on UACC-257 melanoma, 7.73 µM in the test with NCI-H226 lung and 9.32 µM in the test on A549 NSCLC. In addition, the TGI is 27.9 µM in the test on HS 578T breast; 25 µM in the test on OVCAR-8 ovarian; 33.6 µM with KM12 colon; 13.2 µM in the test on NCI-H23 lung; above 41.2 µM in the test on SNB-19 CNS; above 31.7 µM with HT29 colon. In addition, the TGI in the test with UACC-257 melanoma came out at 25.4 µM; in the test with NCI-H226 lung, 22.8 µM; in the test on A549 NSCLC, 30.5 µM.
Regarding `COc1ccc(C(NC(=O)C[C@@H](C(=O)N(C)C(C)C(=O)O)N(C)C(=O)[C@@H]2CCCN2C(=O)[C@H](C(C)C)N(C)C(=O)C(C(C)C)N(C)C(=O)[C@H](Cc2ccccc2)N(C)C(=O)C(NC(=O)OC(C)(C)C)C(C)C)c2ccc(OC)cc2)cc1` (some centres not stated) (Boc-[ξV][NMeF][ξNMeV][NMeV]P[NMeD](X3)[ξNMeA]-OH), the TGI with HS 578T breast was 7.32 µM; in the test on OVCAR-8 ovarian, 37.5 µM and 33.7 µM; with KM12 colon, 15.2 µM and 34.1 µM; with NCI-H23 lung it was 37.5 µM and 53.4 µM; with SR leukemia, 37.5 µM and 36 µM; in the test on SNB-19 CNS, 37.5 µM and 33 µM. The TGI in the test on HT29 colon was 37.2 µM and 32.4 µM; in the test with UACC-257 melanoma, 23 µM and 32.2 µM; in the test on NCI-H226 lung it was 19.2 µM and 32.3 µM; in the test on A549 NSCLC, > 37.5 µM and 31.7 µM. The GI50 in the test with OVCAR-8 ovarian was 19.1 µM; with KM12 colon, 17.5 µM; in the test with NCI-H23 lung, 23.1 µM; with SR leukemia, 0.00375 µM; in the test with SNB-19 CNS it was 17.5 µM; in the test with UACC-257 melanoma it was 17.3 µM. In addition, the GI50 was 18 µM in the test on NCI-H226 lung and 17.1 µM in the test on A549 NSCLC.
Turning to `O=[N+]([O-])c1ccc(Cl)cc1N/N=C/c1ccnc2ccccc12`, the TGI with HS 578T breast, in the test on OVCAR-8 ovarian, in the test with KM12 colon, in the test with NCI-H23 lung, in the test with SR leukemia and in the test on SNB-19 CNS was above 100 µM each time. Moreover, the TGI in the test on HT29 colon, with UACC-257 melanoma, in the test on NCI-H226 lung and in the test on A549 NSCLC was above 100 µM each time.
Regarding `COc1ccc(CCN=C2NC(=O)/C(=C/c3ccc4ncccc4c3)S2)cc1`, the GI50 in the test with HS 578T breast is above 25 µM; in the test with OVCAR-8 ovarian it was above 25 µM; in the test on KM12 colon, above 25 µM; in the test with NCI-H23 lung, above 25 µM; in the test with SR leukemia, 12.6 µM; in the test with SNB-19 CNS, above 25 µM. The GI50 in the test with HT29 colon, with UACC-257 melanoma, in the test with NCI-H226 lung and with A549 NSCLC was above 25 µM throughout. For the same compound, the TGI in the test on HS 578T breast, with OVCAR-8 ovarian, with KM12 colon, in the test on NCI-H23 lung, with SR leukemia and in the test on SNB-19 CNS was above 25 µM throughout. Besides, the TGI in the test with HT29 colon, in the test with UACC-257 melanoma, with NCI-H226 lung and in the test on A549 NSCLC was above 25 µM throughout.

(Values after PubChem BioAssay (NCI).)
